{
  "source": "ChEMBL document CHEMBL4342421",
  "about": "“Current scenario of tetrazole hybrids for antibacterial activity” (Eur J Med Chem, 2019)",
  "key": {"Aspergillus flavus [1]": {"system": "Aspergillus flavus", "experiment": "Antifungal activity against Aspergillus flavus", "format": "functional"}, "Aspergillus niger [2]": {"system": "Aspergillus niger", "experiment": "Antifungal activity against Aspergillus niger", "format": "functional"}, "Fusarium oxysporum": {"system": "Fusarium oxysporum", "experiment": "Antifungal activity against Fusarium oxysporum", "format": "functional"}, "Staphylococcus aureus [3]": {"system": "Staphylococcus aureus", "experiment": "Antimicrobial activity against Staphylococcus aureus ATCC 25923 assessed as zone of inhibition at 100 ug/ml after 24 hrs by disc diffusion method", "format": "functional", "conditions": "ATCC 25923, 24 h, read-out: IZ"}, "Klebsiella pneumoniae": {"system": "Klebsiella pneumoniae", "experiment": "Antimicrobial activity against Klebsiella pneumoniae ATCC 700603 assessed as zone of inhibition at 100 ug/ml after 24 hrs by disc diffusion method", "format": "functional", "conditions": "ATCC 700603, 24 h, read-out: IZ"}, "Streptococcus agalactiae": {"system": "Streptococcus agalactiae", "experiment": "Antimicrobial activity against Streptococcus agalactiae 55118 assessed as zone of inhibition at 100 ug/ml after 24 hrs by disc diffusion method", "format": "functional", "conditions": "Streptococcus agalactiae, 55118, 24 h; read-out: IZ"}, "Bacillus subtilis [4]": {"system": "Bacillus subtilis", "experiment": "Antimicrobial activity against Bacillus subtilis", "format": "functional"}, "Proteus vulgaris": {"system": "Proteus vulgaris", "experiment": "Antimicrobial activity against Proteus vulgaris", "format": "functional"}, "Salmonella typhimurium": {"system": "Salmonella typhimurium", "experiment": "Antimicrobial activity against Salmonella typhimurium", "format": "functional, Salmonella enterica subsp. enterica serovar Typhimurium", "conditions": "Salmonella enterica"}, "Streptococcus pneumoniae": {"system": "Streptococcus pneumoniae", "experiment": "Antimicrobial activity against Streptococcus pneumoniae", "format": "functional"}, "Proteus mirabilis": {"system": "Proteus mirabilis", "experiment": "Antimicrobial activity against Proteus mirabilis", "format": "functional"}, "Prescottella equi": {"system": "Prescottella equi", "experiment": "Antimicrobial activity against Rhodococcus equi", "format": "functional", "conditions": "Rhodococcus (subgen. Prescottella) equi"}, "Bacillus thuringiensis": {"system": "Bacillus thuringiensis", "experiment": "Antimicrobial activity against Bacillus thuringiensis", "format": "functional"}, "Staphylococcus aureus [5]": {"system": "Staphylococcus aureus", "experiment": "Antibacterial activity against methicillin resistant Staphylococcus aureus N315 after 24 hrs by two-fold broth serial dilution method", "format": "functional", "conditions": "N315, 24 h"}, "Bacillus subtilis [6]": {"system": "Bacillus subtilis", "experiment": "Antibacterial activity against Bacillus subtilis ATCC 21216 after 24 hrs by two-fold broth serial dilution method", "format": "functional", "conditions": "ATCC 21216, 24 h"}, "Micrococcus luteus": {"system": "Micrococcus luteus", "experiment": "Antibacterial activity against Micrococcus luteus ATCC 4698 after 24 hrs by two-fold broth serial dilution method", "format": "functional", "conditions": "ATCC 4698, 24 h"}, "Escherichia coli [7]": {"system": "Escherichia coli", "experiment": "Antimicrobial activity against Escherichia coli JM 109 after 24 hrs by two-fold broth serial dilution method", "format": "functional", "conditions": "JM 109, 24 h"}, "Pseudomonas aeruginosa [8]": {"system": "Pseudomonas aeruginosa", "experiment": "Antimicrobial activity against Pseudomonas aeruginosa ATCC 27853 after 24 hrs by two-fold broth serial dilution method", "format": "functional", "conditions": "ATCC 27853, 24 h"}, "Shigella dysenteriae": {"system": "Shigella dysenteriae", "experiment": "Antimicrobial activity against Shigella dysenteriae after 24 hrs by two-fold broth serial dilution method", "format": "functional"}, "Candida albicans [9]": {"system": "Candida albicans", "experiment": "Antifungal activity against Candida albicans ATCC 76615 after 24 hrs", "format": "functional", "conditions": "ATCC 76615, 24 h"}, "Cyberlindnera jadinii": {"system": "Cyberlindnera jadinii", "experiment": "Antifungal activity against Candida utilis after 24 hrs", "format": "functional", "conditions": "Williopsis jadinii"}, "Aspergillus flavus [10]": {"system": "Aspergillus flavus", "experiment": "Antifungal activity against Aspergillus flavus after 24 hrs", "format": "functional"}, "Saccharomyces cerevisiae": {"system": "Saccharomyces cerevisiae", "experiment": "Antifungal activity against Saccharomyces cerevisiae after 24 hrs", "format": "functional"}, "Pichia norvegensis": {"system": "Pichia norvegensis", "experiment": "Antifungal activity against Candida mycoderma after 24 hrs", "format": "functional"}, "Escherichia coli [11]": {"system": "Escherichia coli", "experiment": "Antimicrobial activity against Escherichia coli", "format": "functional"}, "Pseudomonas aeruginosa [12]": {"system": "Pseudomonas aeruginosa", "experiment": "Antimicrobial activity against Pseudomonas aeruginosa", "format": "functional"}, "Staphylococcus aureus [13]": {"system": "Staphylococcus aureus", "experiment": "Antimicrobial activity against Staphylococcus aureus", "format": "functional"}, "Bacillus cereus [14]": {"system": "Bacillus cereus", "experiment": "Antimicrobial activity against Bacillus cereus", "format": "functional"}, "Candida albicans [15]": {"system": "Candida albicans", "experiment": "Antifungal activity against Candida albicans", "format": "functional"}, "Staphylococcus aureus [16]": {"system": "Staphylococcus aureus", "experiment": "Antimicrobial activity against Staphylococcus aureus assessed as zone of inhibition at 250 ug/ml", "format": "functional", "conditions": "read-out: IZ"}, "Bacillus cereus [17]": {"system": "Bacillus cereus", "experiment": "Antimicrobial activity against Bacillus cereus assessed as zone of inhibition at 250 ug/ml", "format": "functional", "conditions": "read-out: IZ"}, "Escherichia coli [18]": {"system": "Escherichia coli", "experiment": "Antimicrobial activity against Escherichia coli assessed as zone of inhibition at 250 ug/ml", "format": "functional", "conditions": "read-out: IZ"}, "Pseudomonas aeruginosa [19]": {"system": "Pseudomonas aeruginosa", "experiment": "Antimicrobial activity against Pseudomonas aeruginosa assessed as zone of inhibition at 250 ug/ml", "format": "functional", "conditions": "read-out: IZ"}, "Candida albicans [20]": {"system": "Candida albicans", "experiment": "Antifungal activity against Candida albicans assessed as zone of inhibition at 250 ug/ml", "format": "functional", "conditions": "read-out: IZ"}, "Aspergillus niger [21]": {"system": "Aspergillus niger", "experiment": "Antifungal activity against Aspergillus niger assessed as zone of inhibition at 250 ug/ml", "format": "functional", "conditions": "read-out: IZ"}, "Escherichia coli [22]": {"system": "Escherichia coli", "experiment": "Antimicrobial activity against Escherichia coli assessed as zone of inhibition at 250 ug/ml after 24 hrs by disk diffusion method", "format": "functional", "conditions": "read-out: IZ"}, "Nakaseomyces glabratus": {"system": "Nakaseomyces glabratus", "experiment": "Antifungal activity against Candida glabrata", "format": "functional"}, "Candida tropicalis": {"system": "Candida tropicalis", "experiment": "Antifungal activity against Candida tropicalis", "format": "functional"}},
  "data": [
    {"smiles": "Clc1ccccc1C(c1ccccc1)(c1ccccc1)n1ccnc1", "note": "[CLOTRIMAZOLE]", "values": [
      {"measurement": "MIC", "setting": "Aspergillus flavus [1]", "result": 100, "unit": "µg/mL"},
      {"measurement": "MIC", "setting": "Aspergillus niger [2]", "result": 100, "unit": "µg/mL"},
      {"measurement": "MIC", "setting": "Fusarium oxysporum", "result": 100, "unit": "µg/mL"}
    ]},
    {"smiles": "CCCCn1nnnc1Sc1c(OC)nc(N)nc1OC", "values": [
      {"measurement": "zone of inhibition at 100 µg/mL", "setting": "Staphylococcus aureus [3]", "result": "10 to 24", "unit": "mm"},
      {"measurement": "zone of inhibition at 100 µg/mL", "setting": "Klebsiella pneumoniae", "result": "10 to 24", "unit": "mm"},
      {"measurement": "zone of inhibition at 100 µg/mL", "setting": "Streptococcus agalactiae", "result": "10 to 24", "unit": "mm"}
    ]},
    {"smiles": "c1ccc(N2CCN(c3ncnc4c3Sc3nnnn3N4)CC2)cc1", "values": [
      {"measurement": "MIC", "setting": "Bacillus subtilis [4]", "result": "51 to 410", "unit": "µg/mL"},
      {"measurement": "MIC", "setting": "Proteus vulgaris", "result": "51 to 410", "unit": "µg/mL"},
      {"measurement": "MIC", "setting": "Salmonella typhimurium", "result": "51 to 410", "unit": "µg/mL"},
      {"measurement": "MIC", "setting": "Streptococcus pneumoniae", "result": "51 to 410", "unit": "µg/mL"},
      {"measurement": "MIC", "setting": "Proteus mirabilis", "result": "51 to 410", "unit": "µg/mL"},
      {"measurement": "MIC", "setting": "Prescottella equi", "result": "51 to 410", "unit": "µg/mL"},
      {"measurement": "MIC", "setting": "Bacillus thuringiensis", "result": "51 to 410", "unit": "µg/mL"}
    ]},
    {"smiles": "Cc1cc(=O)oc2cc(OCC(O)Cn3cnnn3)cc(OCC(O)Cn3cnnn3)c12", "note": "(stereo not drawn)", "values": [
      {"measurement": "MIC", "setting": "Staphylococcus aureus [5]", "result": "32 to 512", "unit": "µg/mL"},
      {"measurement": "MIC", "setting": "Bacillus subtilis [6]", "result": "32 to 512", "unit": "µg/mL"},
      {"measurement": "MIC", "setting": "Micrococcus luteus", "result": "32 to 512", "unit": "µg/mL"},
      {"measurement": "MIC", "setting": "Escherichia coli [7]", "result": "32 to 512", "unit": "µg/mL"},
      {"measurement": "MIC", "setting": "Pseudomonas aeruginosa [8]", "result": "32 to 512", "unit": "µg/mL"},
      {"measurement": "MIC", "setting": "Shigella dysenteriae", "result": "32 to 512", "unit": "µg/mL"},
      {"measurement": "MIC", "setting": "Candida albicans [9]", "result": "32 to 512", "unit": "µg/mL"},
      {"measurement": "MIC", "setting": "Cyberlindnera jadinii", "result": "32 to 512", "unit": "µg/mL"},
      {"measurement": "MIC", "setting": "Aspergillus flavus [10]", "result": "32 to 512", "unit": "µg/mL"},
      {"measurement": "MIC", "setting": "Saccharomyces cerevisiae", "result": "32 to 512", "unit": "µg/mL"},
      {"measurement": "MIC", "setting": "Pichia norvegensis", "result": "32 to 512", "unit": "µg/mL"}
    ]},
    {"smiles": "Clc1ccc(-c2nnnn2-c2nc3ccccc3s2)cc1", "values": [
      {"measurement": "MIC", "setting": "Escherichia coli [11]", "result": "50 to 100", "unit": "µg/mL"},
      {"measurement": "MIC", "setting": "Pseudomonas aeruginosa [12]", "result": "50 to 100", "unit": "µg/mL"},
      {"measurement": "MIC", "setting": "Staphylococcus aureus [13]", "result": "50 to 100", "unit": "µg/mL"},
      {"measurement": "MIC", "setting": "Bacillus cereus [14]", "result": "50 to 100", "unit": "µg/mL"},
      {"measurement": "MIC", "setting": "Candida albicans [15]", "result": "50 to 100", "unit": "µg/mL"},
      {"measurement": "zone of inhibition at 250 µg/mL", "setting": "Staphylococcus aureus [16]", "result": "16 to 26", "unit": "mm"},
      {"measurement": "zone of inhibition at 250 µg/mL", "setting": "Bacillus cereus [17]", "result": "16 to 26", "unit": "mm"},
      {"measurement": "zone of inhibition at 250 µg/mL", "setting": "Escherichia coli [18]", "result": "16 to 26", "unit": "mm"},
      {"measurement": "zone of inhibition at 250 µg/mL", "setting": "Pseudomonas aeruginosa [19]", "result": "16 to 26", "unit": "mm"},
      {"measurement": "zone of inhibition at 250 µg/mL", "setting": "Candida albicans [20]", "result": "16 to 26", "unit": "mm"},
      {"measurement": "zone of inhibition at 250 µg/mL", "setting": "Aspergillus niger [21]", "result": "16 to 26", "unit": "mm"},
      {"measurement": "MIC", "setting": "Aspergillus niger [2]", "result": "50 to 100", "unit": "µg/mL"},
      {"measurement": "zone of inhibition at 250 µg/mL", "setting": "Escherichia coli [22]", "result": "18 to 26", "unit": "mm"}
    ]},
    {"smiles": "CC[C@H]1OC(=O)[C@H](C)[C@@H](O[C@H]2C[C@@](C)(OC)[C@@H](O)[C@H](C)O2)[C@H](C)[C@@H](O[C@@H]2O[C@H](C)C[C@H](N(C)C)[C@H]2O)[C@](C)(O)C[C@@H](C)C(=O)[C@H](C)[C@@H](O)[C@]1(C)O", "note": "[ERYTHROMYCIN]", "values": [
      {"measurement": "zone of inhibition at 100 µg/mL", "setting": "Staphylococcus aureus [3]", "result": "10 to 24", "unit": "mm"},
      {"measurement": "zone of inhibition at 100 µg/mL", "setting": "Klebsiella pneumoniae", "result": "10 to 24", "unit": "mm"},
      {"measurement": "zone of inhibition at 100 µg/mL", "setting": "Streptococcus agalactiae", "result": "10 to 24", "unit": "mm"}
    ]},
    {"smiles": "Clc1ccc(COC(Cn2ccnc2)c2ccc(Cl)cc2Cl)c(Cl)c1", "note": "(stereo not drawn) [MICONAZOLE]", "values": [
      {"measurement": "MIC", "setting": "Candida albicans [15]", "result": "12.5 to 800", "unit": "µg/mL"},
      {"measurement": "MIC", "setting": "Nakaseomyces glabratus", "result": "12.5 to 800", "unit": "µg/mL"},
      {"measurement": "MIC", "setting": "Candida tropicalis", "result": "12.5 to 800", "unit": "µg/mL"}
    ]}
  ]
}
